Results published in patent publication US11912723B2, “KRAS modulators and uses thereof” (Quanta Therapeutics, Inc., priority 2022, dated 2024).

Key:
[1] = biological target: T1, KRAS G12D/RAF1 (Homo sapiens, UniProt P01116, G12D); experiment: Protein-protein interaction (PPI) HTRF assay KRAS G12D/RAF1; format: binding; conditions: KRAS G12D/RAF1, GppNHp-loaded KRAS; 30 minutes pre-incubation
T1 construct: KRAS (1-169) proteins were expressed in E. coli at 18° C; His6-MBP (N, cleaved yes); made in house; host or cells: E. coli
T1 sequence (P01116 1-169 isoform P01116-2 G12D): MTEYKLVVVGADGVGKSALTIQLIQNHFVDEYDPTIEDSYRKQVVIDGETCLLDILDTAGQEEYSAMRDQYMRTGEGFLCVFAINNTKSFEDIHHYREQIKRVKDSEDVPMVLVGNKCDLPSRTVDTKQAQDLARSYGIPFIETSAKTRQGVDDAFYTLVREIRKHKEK
How it was run: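 IC50 values come from the 665/615 HTRF ratio, scaled between no-compound (0% inhibition) and untagged RAF1 (100%). GppNHp-exchanged, biotinylated RAS (1-169) solution at 16 nM met compound for 30 min at room temperature. Then 16 nM His-tagged RAF1 (52-131) donor solution was added and incubated 1 h.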

[2] = system: AGS (KRAS G12D) cells, phospho-ERK; experiment: pERK In Cell Western (ICW) assay (Method B); format: cell-based; conditions: 3 hours
Protocol: pERK ICW is a high throughput screening assay to evaluate the cellular potency of mutant KRAS small molecule inhibitors. KRAS mutant cell line AGS (KRAS^G12D) were purchased from ATCC and maintained in DMEM and RPMI medium supplemented with 10% fetal bovine serum and Penicillin/Streptomycin.
Cells grown in exponential phase were trypsinized, resuspended in fresh media, and viable cells were counted using a cell counter with Trypan Blue (BioRad TC20). Cells were seeded into 384-well plate (Greiner 781091) at density of 5,000 cells/well for AGS and allowed to grow overnight in a 37° C. CO2 incubator. The next day, compounds were dispensed into wells with a ½ log, 10-point serial dilution and top concentration of 10 μM using Tecan D300e dispenser and incubated for 3 hours in a 37° C. CO2 incubator. Cells were then fixed with paraformaldehyde (Electron Microscopy Sciences, 15710, 4% final concentration) for 30 min, permeabilized with wash buffer (1×PBS+0.1% Triton X-100) for 30 min and blocked with Odyssey blocking buffer (Li—COR 927-70001) for 1 hour, all at room temperature (RT). Phospho-ERK antibody (CST 4370L) was diluted 1:500 in Odyssey blocking+0.2% Tween 20 and incubated with cells overnight at 4° C. The next day, plates were washed 5× with wash buffer, incubated with IRDye 800 CW, Goat anti-Rabbit secondary antibody (Li—COR 926-32211, 1:500) and DRAQ5 (CST 4084L, 1:5,000) diluted in Odyssey blocking+0.2% Tween 20 for 1 hour, washed 5×, and imaged on an Odyssey CLx imaging system.
For data analysis, signal intensities from 800 (phosphor-ERK) and 700 (DRAQ5) channels were extracted, and phospho-ERK signals were normalized to DRAQ5 signals for each well and percent of DMSO control values were computed. Data were then imported into Graphpad Prism to compute half-maximal inhibitory concentrations (IC50) using a 4-parameter variable slope model. Z-factor for each plate was computed from signals derived from wells treated with either DMSO or 5 μM of Trametinib. AGS pERK ICW (Method B) IC50 (uM) values of selected compounds are depicted in Table 2 with compounds having a value 0.001 uM to 0.01 uM as ++++; >0.01 uM to 0.1 uM as +++; >0.1 uM to 1 uM as ++; 1 uM to 10 uM as + and >10 uM as NA.

SMILES	IC50 [1] [µM]	IC50 ([2]; Homo sapiens) [µM]	IC50 [2] [µM]
OC1CCCN(c2nc(OC[C@@]34CCCN3C[C@H](F)C4)nc3c2COC2(CCc4c(Cl)cccc42)C3)CC1 (mixture of isomers) [Compound 6, 1-[4′-chloro-2-[[rac-(2R,8S)-2-fluoro-1,2,3,5,6,7-hexahydropyrrolizin-8-yl]methoxy]spiro[5,8-dihydropyrano[4,3-d]pyrimidine-7,1′-indane]-4-yl]azepan-4-ol]	> 100	> 10	–
CN(C)C(=O)c1cc2n(n1)CCCN(c1nc(OC[C@@]34CCCN3C[C@H](F)C4)nc3c1COC1(CCCc4c(Cl)cc(O)cc41)C3)C2 (mixture of isomers) [Compound 43, 5-[5′-chloro-7′-hydroxy-2-[[rac-(2R,8S)-2-fluoro-1,2,3,5,6,7-hexahydropyrrolizin-8-yl]methoxy]spiro[5,8-dihydropyrano[4,3-d]pyrimidine-7,1′-tetralin]-4-yl]-N,N-dimethyl-4,6,7,8-tetrahydropyrazolo[1,5-a][1,4]diazepine-2-carboxamide]	10 to 100	1 to 10	–
C=C1CN2CCCC2(COc2nc3c(c(N4CCCn5nc(C(=O)N(C)C)c(Cl)c5C4)n2)CO[C@@]2(CCc4c(Cl)cccc42)C3)C1 (mixture of isomers) [Compound 54, 3-chloro-N,N-dimethyl-5-[rac-(7S)-4′-chloro-2-[(6-methylene-2,3,5,7-tetrahydro-1H-pyrrolizin-8-yl)methoxy]spiro[5,8-dihydropyrano[4,3-d]pyrimidine-7,1′-indane]-4-yl]-4,6,7,8-tetrahydropyrazolo[1,5-a][1,4]diazepine-2-carboxamide]	10 to 100	0.1 to 1	–
Oc1ccc2c(c1)C1(CCC2)Cc2nc(OC[C@@]34CCCN3C[C@H](F)C4)nc(N3CCCCCC3)c2CO1 (single isomer, unassigned) [Compound 7]	> 100	> 10	–
Oc1ccc2c(c1)C1(CCC2)Cc2nc(OC[C@@]34CCCN3C[C@H](F)C4)nc(N3CCCCCC3)c2CO1 (single isomer, unassigned) [Compound 8]	> 100	–	> 10
O=C1NC(=O)C2(CCCN(c3nc(OC[C@@]45CCCN4C[C@H](F)C5)nc4c3COC3(CCc5c(Cl)cccc53)C4)C2)N1 (single isomer, unassigned) [Compound 24A, (5*)-9-[(7*)-4′-chloro-2-[[(2R,8S)-2-fluoro-1,2,3,5,6,7-hexahydropyrrolizin-8-yl]methoxy]spiro[5,8-dihydropyrano[4,3-d]pyrimidine-7,1′-indane]-4-yl]-1,3,9-triazaspiro[4.5]decane-2,4-dione]	10 to 100	1 to 10	–
F[C@H]1CN2CCC[C@@]2(COc2nc3c(c(N4CCCCCC4)n2)COC2(CCc4c(Cl)cccc42)C3)C1 (stereo partly drawn) [Compound 1, 4′-(azepan-1-yl)-4-chloro-2′-(((2R,7aS)-2-fluorotetrahydro-1H-pyrrolizin-7a(5H)-yl)methoxy)-2,3,5′,8′-tetrahydrospiro[indene-1,7′-pyrano[4,3-d]pyrimidine]]	> 100	> 10	–
F[C@H]1CN2CCC[C@@]2(COc2nc3c(c(N4C[C@H]5CC[C@@H](C4)N5)n2)COC2(CCc4c(Cl)cccc42)C3)C1 (stereo partly drawn) [Compound 2, 4′-((1R,5S)-3,8-diazabicyclo[3.2.1]octan-3-yl)-4-chloro-2′-(((2R,7aS)-2-fluorotetrahydro-1H-pyrrolizin-7a(5H)-yl)methoxy)-2,3,5′,8′-tetrahydrospiro[indene-1,7′-pyrano[4,3-d]pyrimidine]]	10 to 100	1 to 10	–
OC1CCCN(c2nc(OC[C@@]34CCCN3C[C@H](F)C4)nc3c2COC2(CCCc4ccc(Br)cc42)C3)CC1 (stereo partly drawn) [Compound 4, 1-[7′-bromo-2-[[(2R,8S)-2-fluoro-1,2,3,5,6,7-hexahydropyrrolizin-8-yl]methoxy]spiro[5,8-dihydropyrano[4,3-d]pyrimidine-7,1′-tetralin]-4-yl]azepan-4-ol]	> 100	> 10	–
F[C@H]1CN2CCC[C@@]2(COc2nc3c(c(N4CCCCCC4)n2)COC2(CCCc4c(Br)cccc42)C3)C1 (stereo partly drawn) [Compound 5, 4-(azepan-1-yl)-5′-bromo-2-[[(2R,8S)-2-fluoro-1,2,3,5,6,7-hexahydropyrrolizin-8-yl]methoxy]spiro[5,8-dihydropyrano[4,3-d]pyrimidine-7,1′-tetralin]]	10 to 100	> 10	–
F[C@H]1CN2CCC[C@@]2(COc2nc3c(c(N4C[C@H]5CC[C@@H](C4)N5)n2)COC2(CCCc4c(Br)cccc42)C3)C1 (stereo partly drawn) [Compound 10, 5′-bromo-4-(3,8-diazabicyclo[3.2.1]octan-3-yl)-2-[[(2R,8S)-2-fluoro-1,2,3,5,6,7-hexahydropyrrolizin-8-yl]methoxy]spiro[5,8-dihydropyrano[4,3-d]pyrimidine-7,1′-tetralin]]	> 100	> 10	–
Oc1ccc2c(c1)C1(CCC2)Cc2nc(OC[C@@]34CCCN3C[C@H](F)C4)nc(N3CCCC(O)CC3)c2CO1 (stereo partly drawn) [Compound 14, 2-[[(2S,8R)-2-fluoro-1,2,3,5,6,7-hexahydropyrrolizin-8-yl]methoxy]-4-(4-hydroxyazepan-1-yl)spiro[5,8-dihydropyrano[4,3-d]pyrimidine-7,4′-tetralin]-6′-ol]	> 100	> 10	–
OC1CCCN(c2nc(OC[C@@]34CCCN3C[C@H](F)C4)nc3c2COC2(CCCc4c(Cl)cccc42)C3)CC1 (stereo partly drawn) [Compound 15, 1-[5′-chloro-2-[[(2R,8S)-2-fluoro-1,2,3,5,6,7-hexahydropyrrolizin-8-yl]methoxy]spiro[5,8-dihydropyrano[4,3-d]pyrimidine-7,1′-tetralin]-4-yl]azepan-4-ol]	> 100	> 10	–
N#CC1CCCN(c2nc(OC[C@@]34CCCN3C[C@H](F)C4)nc3c2COC2(CCc4c(Cl)cccc42)C3)CC1 (stereo partly drawn) [Compound 16, 1-(4-chloro-2′-(((2R,7aS)-2-fluorotetrahydro-1H-pyrrolizin-7a(5H)-yl)methoxy)-2,3,5′,8′-tetrahydrospiro[indene-1,7′-pyrano[4,3-d]pyrimidin]-4′-yl)azepane-4-carbonitrile]	> 100	> 10	–
OC1CCCN(c2nc(OC[C@@]34CCCN3C[C@H](F)C4)nc3c2COC2(CCCc4ccc(Cl)cc42)C3)CC1 (stereo partly drawn) [Compound 17, 1-(7-chloro-2′-(((2R,7aS)-2-fluorotetrahydro-1H-pyrrolizin-7a(5H)-yl)methoxy)-3,4,5′,8′-tetrahydro-2H-spiro[naphthalene-1,7′-pyrano[4,3-d]pyrimidin]-4′-yl)azepan-4-ol]	10 to 100	1 to 10	–
F[C@H]1CN2CCC[C@@]2(COc2nc3c(c(N4CCC=CCC4)n2)COC2(CCc4c(Cl)cccc42)C3)C1 (stereo partly drawn) [Compound 18, 4′-chloro-2-[[(2R,8S)-2-fluoro-1,2,3,5,6,7-hexahydropyrrolizin-8-yl]methoxy]-4-(2,3,6,7-tetrahydroazepin-1-yl)spiro[5,8-dihydropyrano[4,3-d]pyrimidine-7,1′-indane]]	10 to 100	> 10	–
CN(C)C(=O)c1cc2n(n1)CCCN(c1nc(OC[C@@]34CCCN3C[C@H](F)C4)nc3c1CO[C@]1(CCc4c(Cl)cccc41)C3)C2 [Compound 27B, 5-[(7R)-4′-chloro-2-[[(2R,8S)-2-fluoro-1,2,3,5,6,7-hexahydropyrrolizin-8-yl]methoxy]spiro[5,8-dihydropyrano[4,3-d]pyrimidine-7,1′-indane]-4-yl]-N,N-dimethyl-4,6,7,8-tetrahydropyrazolo[1,5-a][1,4]diazepine-2-carboxamide]	10 to 100	–	0.1 to 1
CN1Cc2c(nc(OC[C@@]34CCCN3C[C@H](F)C4)nc2N2CCCCCC2)C[C@]12CCc1c(Cl)cccc12 [Compound 28A, (7S)-4-(azepan-1-yl)-4′-chloro-2-[[(2R,8S)-2-fluoro-1,2,3,5,6,7-hexahydropyrrolizin-8-yl]methoxy]-6-methyl-spiro[5,8-dihydropyrido[4,3-d]pyrimidine-7,1′-indane]]	> 100	> 10	–
